According to patent publication US10953027B2, “Active agents and methods of their use for the treatment of metabolic disorders and nonalcoholic fatty liver disease” (Flagship Pioneering Innovations V, Inc., priority 2018, dated 2021):

Columns and labels:
[1] = Assay 2. Stability in Simulated Intestinal Fluid (SIF); format: in vitro ADME; conditions: 1 μM, 37° C., SIF pH 6.7 with pancreatin
Method: Assay 2. Stability of acylated active agents in Simulated Intestinal Fluid (SIF). This assay was used to assess the stability of an acylated active agent in a small intestine.
Phosphate buffer was prepared by dissolving 0.42 g of sodium hydroxide pellets and 3.95 g of monobasic sodium phosphate monohydrate and 6.19 g of sodium chloride in ultrapure water (MilliQ®, Millipore Sigma, Darmstadt, Germany). The pH was adjusted to 6.7 using aq. HCl and aq. NaOH, as necessary, and the solution was diluted with ultrapure water to produce 1 L of the pH 6.7 buffer.
112 mg FaSSIF powder (Biorelevant™, London, UK) was dissolved in 50 mL of the pH 6.7 buffer. 2 to 3 mL of the resulting solution were then added to 500 mg pancreatin (Millipore Sigma, Darmstadt, Germany). The resulting mixture was agitated by finger tapping the vessel containing the mixture until milky suspension formed. At this time, the remainder of the 50 mL FaSSiF/pH 6.7 buffer solution was added. The resulting suspension was flipped upside down 10 times to produce SIF, which was used fresh.
Test compounds were dissolved in DMSO stock to 1 mM. An aliquot of the DMSO stock solution was removed and diluted in the SIF media in 15 mL falcon tubes to produce a mixture with a tested compound concentration of 1 μM. A 1 mL aliquot was immediately removed and diluted once with 1 volume of acetonitrile for T0 timepoint. The mixture was sealed and agitated at 37° C. in an incubator. Aliquots (1 mL) were removed at regular intervals and immediately quenched by the addition of 1 volume of acetonitrile. The resulting samples were analyzed by LC/MS to determine degradation rates.

[2] = Assay 1. Stability in Simulated Gastric Fluid (SGF); format: in vitro ADME; conditions: 1 μM, 37° C., SGF pH 1.6 with pepsin
Method: Assay 1. Stability of acylated active agents in Simulated Gastric Fluid (SGF). This assay was used to assess the stability of an acylated active agent in a stomach.
Medium was prepared by dissolving 2 g of sodium chloride in 0.6 L of ultrapure water (MilliQ®, Millipore Sigma, Darmstadt, Germany). The pH was adjusted to 1.6 with 1N hydrochloric acid, and the volume was then adjusted to 1 L with purified water.
60 mg FaSSIF powder (Biorelevant™, London, UK) were dissolved in 500 mL buffer (above). Pepsin was added (0.1 mg/mL) (Millipore Sigma, Darmstadt, Germany), and the solution was stirred. The resulting SGF media were used fresh for each experiment.
Test compounds were dissolved in DMSO stock to 1 mM. An aliquot of the DMSO stock solution was removed and diluted in the SGF Media in 15 mL falcon tubes to generate a compound concentration of 1 μM. A 1 mL aliquot was immediately removed and diluted once with 1 volume of acetonitrile for T0 timepoint. The mixture was sealed and mixed at 37° C. in an incubator. Aliquots (1 mL) were removed at regular intervals and immediately quenched by the addition of 1 volume of acetonitrile. The resulting samples were analyzed by LC/MS to determine degradation rates in SGF.

Row | SMILES | Assay 2 (SIF) (% @ Remaining 4 hours) [1] | Assay 1 (SGF) (% Remaining @ 1 hours) [2]
1 | CCCC(=O)O[C@H](C)CC(=O)Oc1ccc(/C=C/c2cc(OC(=O)C[C@@H](C)OC(=O)CCC)cc(OC(=O)C[C@@H](C)OC(=O)CCC)c2)cc1 [Compound 13, [4-[(E)-2-[3,5-bis[[(3R)-3-butanoyloxybutanoyl]oxy]phenyl]vinyl]phenyl] (3R)-3-butanoyloxy-butanoate] | B (B: 25-75% of the tested compound remaining) | C (C: >75% of the tested compound remaining)
2 | C=C1CC[C@H](OC(=O)C2OCC[C@@H](C)O2)C/C1=C/C=C1\CCC[C@]2(C)[C@@H]([C@H](C)CCCC(C)C)CC[C@@H]12 (stereo partly drawn) [Compound 69, [(1 S,3Z)-3-[(2E)-2-[(1R,3aS,7aR)-1-[(1R)-1,5-dimethylhexyl]-7a-methyl-2,3,3a,5,6,7-hexahydro-1H-inden-4-ylidene]ethylidene]-4-methylene-cyclohexyl] (4R)-4-methyl-1,3-dioxane-2-carboxylate] | C (C: >75% of the tested compound remaining) | C (C: >75% of the tested compound remaining)
3 | CCC(=O)OC1O[C@@H](C)[C@@H](OC(=O)CC)[C@@H](OC(=O)CC)[C@@H]1OC(=O)CC (stereo partly drawn) [Compound 157, (3S,4R,5R,6S)-6-methyl-3,4,5-tris(propanoyloxy)oxan-2-yl Propanoate] | A (A: <25% of the tested compound remaining) | C (C: >75% of the tested compound remaining)
4 | CC(=O)Oc1ccc([C@@H]2CC(=O)c3c(OC(C)=O)cc(OC(C)=O)cc3O2)cc1 [Compound 21, (S)-2-(4-acetoxyphenyl)-4-oxochromane-5,7-diyl Diacetate] | A (A: <25% of the tested compound remaining) | C (C: >75% of the tested compound remaining)
5 | O=C(CCc1c[nH]c2ccccc12)O[C@@H]1[C@H](OC(=O)CCc2c[nH]c3ccccc23)C=C(C(=O)O)C[C@H]1OC(=O)CCc1c[nH]c2ccccc12 [Compound 253, (3R,4S,5R)-3,4,5-tris({[3-(1H-indol-3-yl)propanoyl]oxy})cyclohex-1-ene-1-carboxylic Acid] | B (B: 25-75% of the tested compound remaining) | B (B: 25-75% of the tested compound remaining)
6 | CCC(=O)OC[C@H]1OC(O)[C@H](OC(=O)CC)[C@@H](OC(=O)CC)[C@@H]1OC(=O)CC (stereo partly drawn) [Compound 142, [(2R,3R,4S,5R)-6-hydroxy-3,4,5-tris(propanoyloxy)oxan-2-yl]methyl Propanoate] | A (A: <25% of the tested compound remaining) | C (C: >75% of the tested compound remaining)
7 | CC(=O)Oc1ccc(-c2oc3cc(OC(C)=O)cc(OC(C)=O)c3c(=O)c2OC(C)=O)cc1 [Compound 20, [4-(3,5,7-triacetoxy-4-oxo-chromen-2-yl)phenyl] acetate] | A (A: <25% of the tested compound remaining) | C (C: >75% of the tested compound remaining)
8 | CCCC(=O)O[C@H]1[C@@H](Oc2ccc(N)cc2C(=O)O)OC[C@@H](OC(=O)CCC)[C@H]1OC(=O)CCC [Compound 41, 5-amino-2-(((2R,3R,4R,5R)-3,4,5-tris(butyryloxy)tetrahydro-2H-pyran-2-yl)oxy)benzoic Acid] | C (C: >75% of the tested compound remaining) | C (C: >75% of the tested compound remaining)
9 | CCCC(=O)Oc1cc(OC(=O)CCC)c2c(=O)c(OC(=O)CCC)c(-c3cc(OC(=O)CCC)c(OC(=O)CCC)c(OC(=O)CCC)c3)oc2c1 [Compound 200, 3,5-bis(butanoyloxy)-4-oxo-2-[3,4,5-tris(butanoyloxy)phenyl]-4H-chromen-7-yl Butanoate] | C (C: >75% of the tested compound remaining) | C (C: >75% of the tested compound remaining)
10 | CCCC(=O)OC[C@@H](OC(=O)CCC)[C@@H](OC(=O)CCC)[C@H](OC(=O)CCC)[C@@H](OC(=O)CCC)C(=O)Oc1ccc(/C=C/c2cc(OC(=O)[C@H](OC(=O)CCC)[C@@H](OC(=O)CCC)[C@H](OC(=O)CCC)[C@@H](COC(=O)CCC)OC(=O)CCC)cc(OC(=O)[C@H](OC(=O)CCC)[C@@H](OC(=O)CCC)[C@H](OC(=O)CCC)[C@@H](COC(=O)CCC)OC(=O)CCC)c2)cc1 [Compound 19, [4-[(E)-2-[3,5-bis[[(2R,3S,4R,5R)-2,3,4,5,6-penta(butanoyloxy)hexanoyl]oxy]phenyl]vinyl]phenyl] (2R,3S,4R,5R)-2,3,4,5,6-penta(butanoyloxy)hexanoate] | B (B: 25-75% of the tested compound remaining) | B (B: 25-75% of the tested compound remaining)
11 | C=C1CC[C@H](OC(=O)C2(C)OCC[C@@H](C)O2)C/C1=C/C=C1\CCC[C@]2(C)[C@@H]([C@H](C)CCCC(C)C)CC[C@@H]12 (stereo partly drawn) [Compound 70, [(1 S,3Z)-3-[(2E)-2-[(1R,3aS,7aR)-1-[(1R)-1,5-dimethylhexyl]-7a-methyl-2,3,3a,5,6,7-hexahydro-1H-inden-4-ylidene]ethylidene]-4-methylene-cyclohexyl] (4R)-2,4-dimethyl-1,3-dioxane-2-carboxylate] | C (C: >75% of the tested compound remaining) | B (B: 25-75% of the tested compound remaining)
12 | CCCC(=O)Oc1ccc(N)cc1C(=O)O.Cl [Compound 31, 5-amino-2-butanoyloxy-benzoic Acid Hydrochloride] | C (C: >75% of the tested compound remaining) | C (C: >75% of the tested compound remaining)
13 | C[C@@H](O)CCOC(=O)c1cc(N)ccc1O [Compound 39, [(3R)-3-hydroxybutyl] 5-amino-2-hydroxy-benzoate] | C (C: >75% of the tested compound remaining) | C (C: >75% of the tested compound remaining)
14 | CCC(=O)O[C@H](C)CCOC(=O)Oc1ccc(/C=C/c2cc(OC(=O)OCC[C@@H](C)OC(=O)CC)cc(OC(=O)OCC[C@@H](C)OC(=O)CC)c2)cc1 [Compound 77, (2R,2′R)-((((5-((E)-4-((((R)-3-(propionyloxy)butoxy)carbonyl)oxy)styryl)-1,3-phenylene)bis(oxy))bis(carbonyl))bis(oxy))bis(butane-4,2-diyl) dipropionate] | A (A: <25% of the tested compound remaining) | B (B: 25-75% of the tested compound remaining)
15 | CCCC(=O)Nc1ccc(O)c(C(=O)O)c1 [Compound 40, 5-(butanoylamino)-2-hydroxy-benzoic Acid] | C (C: >75% of the tested compound remaining) | C (C: >75% of the tested compound remaining)
